We go through 2 compounds from patent US9725490B2, “ERAP1-derived peptide and use thereof” (TOKUSHIMA UNIVERSITY, priority 2011, dated 2017).

Experiment [1] addresses T1, binding of inherent ERAP1 and inherent PHB2/REA (Homo sapiens, UniProt Q99623).
T1 construct: endogenous in cells; host or cells: MCF-7 and KPL-3C breast cancer cells
The experiment can be described thus: Inhibition of ERAP1-PHB2/REA binding in cells, immunoprecipitation-Western blotting. The class given is cell-based. The note with it: MCF-7 and KPL-3C cells; 10 μM peptide; 10 nM E2 24 hours.

The subject of the next experiment is KPL-3C tumor. The experiment can be described thus: In vivo inhibition of tumor proliferation, concomitant use with tamoxifen, KPL-3C transplant. The following applies: intraperitoneal every day, day 14. On the set-up: species or system BALB/c nude mouse. An excerpt: FIG. 18 is a diagram illustrating the influence of concomitant use of the ERAP1-peptide and tamoxifen on tumor proliferation in a human breast cancer-transplanted mouse. KPL-3 cells were subcutaneously transplanted into the breast fat body of a BALB/c nude mouse. The treatment test individuals/group) was initiated (day 0) when the volume of the tumor reached about 50-80 mm^3 in the absence E2.
KPL-3 cells were subcutaneously transplanted into the breast fat body of a BALB/c nude mouse. When the volume of the tumor reached about 50-80 mm^3 in the absence of E2, the treatment test (5 individuals/group) was initiated (day 0). KPL-3C tumor heterotransplant-carrying mouse was administered with the ERAP1-peptide alone (3.5, 7 and 14 mg/kg), the scramble peptide alone (14 mg/kg), tamoxifen alone (4 mg/kg) or a combination of the ERAP1-peptide (14 mg/kg) and tamoxifen (4 mg/kg) every day by intraperitoneal injection.

The test system of a further experiment is MCF-7 cells. The experiment can be described thus: E2-independent cell proliferation, MCF-7. In kind it is cell-based, human. The note with it: 1, 3, 5 and 10 μM, 24 hours. How it is done:
FIG. 15 is a diagram illustrating the effects of the ERAP1-peptide on E2-independent cell functions. […] MCF-7 cells were treated with the ERAP1-peptide in each concentration (1, 3, 5 and 10 μM) or 10 nM tamoxifen as a positive control for 24 hours. […] MCF-7 cells were stimulated with 10 μM ERAP1-peptide treatment only, 10 nM E2 treatment only, or 10 μM ERAP1-peptide treatment and immediately 10 nM E2 for 24 hours, and the cytoplasm fraction was isolated from each of the treated cells. Then, the cytoplasm fraction was immunoprecipitated with anti-ERα antibody. Furthermore, with respect to the obtained sample, Western blotting analysis was performed using the antibodies shown in the figure.
MCF-7 cells or ZR-75-1 cells were seeded in 2×10^4/well, and KPL-3C cells were seeded in 1×10^4/well on a 48-well plate, and stood in a CO2 incubator for 24 hours. Then, for MCF-7 cells, the culture medium was exchanged with DMEM/F12 culture medium containing 10% FBS (Nichirei Biosciences, Tokyo, Japan), 1% antibiotic/antimycotic solution (Invitrogen), 0.1 mM NEAA48 (invitrogen), 1 mM sodium pyruvate and 10 μg/ml insulin (Sigma, St. Louis, Mo., USA) and not containing phenol red, and the cells were further pre-cultured for 24 hours. […] Then, 100 μl from each well was moved to a 96-well plate, and the absorbance at 450 nm was measured with a microplate reader.

Experiment [2] concerns PHB2/REA localization in MCF-7 cells. The experiment can be described thus: Nuclear translocation of PHB2/REA (fractionation, immunoblotting, immunostaining). In kind it is cell-based, human. The following applies: for nuclear translocation of PHB2/REA, temporal: 1 hour to 24 hours after administration. How it is done:
FIG. 3-1 is a diagram illustrating that ERAP1-peptide treatment promotes nuclear translocation of PHB2. […] MCF-7 cells were stimulated for 24 hours with 10 μM ERAP1-peptide and/or 10 nM E2. The cells were fractioned into mitochondria, cytoplasm, and nuclear fractions by specific gravity centrifugation. Then, each fraction was subjected to immunoblotting analysis using an anti-ERAP1 antibody and an anti-PHB2 antibody. PRDX3, α/β-Tublin (Tublin) and lamin B are markers for mitochondria, cytoplasm, and nuclear fractions, respectively (upper panel). The protein content of each fraction was evaluated with Coomassie-stained SDS-PAGE gel (lower panel). […] KPL-3C cells were treated for 24 hours with 10 μM HA-tagged ERAP1-peptide and/or 10 nM E2. Then, the cells were fractionated into cytoplasm and nuclear fractions by specific gravity centrifugation. Then, which fraction was immunoprecipitated with anti-ERα antibody, an anti-ERAP1 antibody or an anti-PHB2 antibody. Then, immunoblotting was performed with each antibody shown in the figure (an anti-ERAP1 antibody, an anti-ERα antibody, an anti-PHB2 antibody and an anti-HA antibody (Peptide)). α/β-Tubulin (Tubulin) and Lamin B are markers for cytoplasm and nuclear fractions, respectively.
FIG. 4-1 is a diagram illustrating that the ERAP1-peptide promotes nuclear translocation of PHB2. (A) The upper panel illustrates representative images of stained immune cells, showing the intracellular localization of PHB2. MCF-7 cells were treated with 10 μM ERAP1-peptide or ERAP1-scramble peptide. Subsequently, the cells were treated with 10 nM E2. After the immobilization, the cells were subjected to immunofluorescent staining using an anti-PHB2 antibody and DAPI (for discriminating the nucleus).
FIG. 4-2 is a diagram illustrating that the ERAP1-peptide promotes nuclear translocation of PHB2. (B) is a diagram illustrating the results of immunoblotting analysis by which the intracellular localization of PHB2 was detected, MCF-7 cells were treated with the ERAP1-peptide or the ERAP1-scramble peptide. Subsequently immediately, the cells were treated with 10 nM E2. The cells were fractionated into cytoplasm and nuclear fractions after 1 hour or 24 hours. Each fraction was immunoprecipitated with anti-ERα antibody, an anti-ERAP1 antibody or a PH82 antibody. […]
MCF-7 cells were seeded in an 8-well chamber (Laboratory-Tek II Chamber Slide System, Nalgen Nunc International, Naperville, Ill., USA) in 5×10^4 cells/well, and cultured under estrogen-free condition for 24 hours. […] The fluorescence image was obtained under Olympus IX71 microscope (Tokyo, Japan). […]
(In general: In western blotting, separated proteins are transferred to a membrane and probed.)

T1 sequence (Q99623 2-299 limits assumed): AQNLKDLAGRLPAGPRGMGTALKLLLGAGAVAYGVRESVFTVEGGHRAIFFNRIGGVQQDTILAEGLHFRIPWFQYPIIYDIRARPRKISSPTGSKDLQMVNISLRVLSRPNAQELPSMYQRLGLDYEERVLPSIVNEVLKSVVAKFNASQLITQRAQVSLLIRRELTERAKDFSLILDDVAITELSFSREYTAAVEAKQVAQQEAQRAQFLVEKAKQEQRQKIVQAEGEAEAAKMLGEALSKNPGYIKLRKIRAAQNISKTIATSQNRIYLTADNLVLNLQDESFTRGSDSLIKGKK

Regarding `CSCC[C@H](NC(=O)[C@H](CCC(N)=O)NC(=O)[C@H](CCCNC(=N)N)NC(=O)[C@H](CCCNC(=N)N)NC(=O)[C@H](CCCNC(=N)N)NC(=O)[C@H](CCCNC(=N)N)NC(=O)[C@H](CCCNC(=N)N)NC(=O)[C@H](CCCNC(=N)N)NC(=O)[C@H](CCCNC(=N)N)NC(=O)[C@H](CCCNC(=N)N)NC(=O)[C@H](CCCNC(=N)N)NC(=O)[C@H](CCCNC(=N)N)NC(=O)[C@@H](N)CCCNC(=N)N)C(=O)N[C@@H](CC(C)C)C(=O)N[C@@H](CO)C(=O)N[C@@H](CC(=O)O)C(=O)N[C@@H](CC(C)C)C(=O)N[C@H](C(=O)N[C@@H](CC(C)C)C(=O)N[C@@H](CCC(N)=O)C(=O)N[C@@H](CC(C)C)C(=O)N[C@@H](CCCNC(=N)N)C(=O)N[C@@H](CCC(N)=O)C(=O)N[C@@H](CCCNC(=N)N)C(=O)O)[C@@H](C)O` [ERAP1-peptide], in experiment [1], the “inhibition of the binding of inherent ERAP1 and inherent PHB2/REA” value was “remarkably inhibited”. Moreover, in the experiment on KPL-3C tumor, the “antitumor effect (tumor volume)” value is “dose-dependent (3.5, 7 and 14 mg/kg) antitumor effect”. Besides, in the experiment on MCF-7 cells, the “cell proliferation in the absence of E2” value was “dose-dependent cell proliferation suppression effect”. Further, the “nuclear translocation of PHB2/REA, temporal” value in experiment [2] is recorded as “Prompt nuclear translocation of inherent PHB2/REA at 1 hour”. Further, in experiment [2] (E2 and peptide at the same time, 10 μM, 24 hours), the “translocation of PHB2/REA from the cytoplasm into the nucleus” value is recorded as “remarkable translocation of PHB2/REA from the cytoplasm into the nucleus”.

As for “DRQLQLSTLQRML (SEQ ID NO: 28) (ERAP1-scramble peptide) [reference compound]”, in experiment [1], the “inhibition of the binding of inherent ERAP1 and inherent PHB2/REA” value is given as “not recognized in any of the cells”. The “antitumor effect (tumor volume)” value in the experiment on KPL-3C tumor is recorded as “the effect was not recognized”. Further, the “nuclear translocation of PHB2/REA, temporal” value in experiment [2] is “not recognized”.
